In patent publication US20240041877A1, “DOSAGE REGIME AND METHOD FOR TREATING PULMONARY ARTERIAL HYPERTENSION” (Altavant Sciences GmbH, priority 2019, published 2024):

Assay: Study KAR5585-101 Part 1 (SAD): plasma pharmacokinetics after a single oral dose of KAR5585, fasting and fed (incl. dose proportionality and food effect)
Settings: for half-life / AUC / AUC(0-inf) / Cmax / Vd/F / Tmax: human, po; for AUC: AUC0-tau; for Vd/F: Vz/F; for Tmax: Median
[1] = 100 mg KAR5585 single oral, fasted, Cohort 1, Geo. Mean
[2] = 100 mg KAR5585 single oral, fasted, Cohort 1, Mean
[3] = 200 mg KAR5585 single oral, fasted, Cohort 2, Geo. Mean
[4] = 200 mg KAR5585 single oral, fasted, Cohort 2, Mean
[5] = 400 mg KAR5585 single oral, fasted, Cohort 3A, Geo. Mean
[6] = 400 mg KAR5585 single oral, fasted, Cohort 3A, Mean
[7] = 400 mg KAR5585 single oral, fed, Cohort 3B, Geo. Mean
[8] = 400 mg KAR5585 single oral, fed, Cohort 3B, Mean
[9] = 700 mg KAR5585 single oral, fasted, Cohort 4, Geo. Mean
[10] = 700 mg KAR5585 single oral, fasted, Cohort 4, Mean
[11] = 1200 mg KAR5585 single oral, fasted, Cohort 5, Geo. Mean
[12] = 1200 mg KAR5585 single oral, fasted, Cohort 5, Mean
[13] = 2000 mg KAR5585 single oral, fasted, Cohort 6, Geo. Mean
[14] = 2000 mg KAR5585 single oral, fasted, Cohort 6, Mean
[15] = 100 to 2000 mg KAR5585 single oral dose, fasting, plasma analyte = label
[16] = plasma, 100 mg, 100 mg KAR5585 single oral, fasted, Cohort 1, Geo. Mean
[17] = plasma, 100 mg, 100 mg KAR5585 single oral, fasted, Cohort 1, Mean
[18] = plasma, 200 mg, 200 mg KAR5585 single oral, fasted, Cohort 2, Geo. Mean
[19] = plasma, 200 mg, 200 mg KAR5585 single oral, fasted, Cohort 2, Mean

Description: Food effect was to be evaluated in Part 1, Period 2. Part 2 was permitted to begin before Part 1 was completed and, in each part, the data from each dose Cohort were to be reviewed for safety before the next dose Cohort was enrolled.
Part 1 had 6 Cohorts of 12 subjects each (for a total of 72 subjects) and Part 2 had 4 Cohorts of 12 subjects each (for a total of 48 subjects). In Part 1, the 12 subjects in Cohort 3 (400 mg)were studied twice, once under fasting conditions (Period 1) and once under fed conditions (Period 2) for food-effect assessment.
Pharmacokinetic data were to be summarized descriptively.

Q: For CCOC(=O)[C@@H]1CC2(CCN(c3cc(O[C@H](c4ccc(Cl)cc4-c4ccccc4)C(F)(F)F)nc(N)n3)CC2)CN1 [KAR5585, (S)-ethyl 8-(2-amino-6-((R)-1-(5-chloro-[1,1′-biphenyl]-2-yl)-2,2,2-trifluoroethoxy)pyrimidin-4-yl)-2,8-diazaspiro[4.5]decane-3-carboxylate], which AUC0-24/D [1] is on record?
A: 0.475 (hr*ng/ml)/mg

Q: What about the C12 [1] of the same molecule?
A: BLQ

Q: What about the CL/F [1] of the same molecule?
A: 2110 L/h

Q: And the Cmax/D [1]?
A: 0.132 (ng/mL)/mg

Q: And the AUC0-24/D [2]?
A: 0.496 (hr*ng/ml)/mg

Q: And the C12 [2]?
A: BLQ

Q: What about the CL/F [2] of the same molecule?
A: 2210 L/h

Q: What about the Cmax/D [2] of the same molecule?
A: 0.139 (ng/mL)/mg

Q: And the AUC0-24/D [3]?
A: 0.467 (hr*ng/ml)/mg

Q: What about the C12 [3] of the same molecule?
A: BLQ

Q: What about the CL/F [3] of the same molecule?
A: 2100 L/h

Q: What about the Cmax/D [3] of the same molecule?
A: 0.0875 (ng/mL)/mg

Q: And the AUC0-24/D [4]?
A: 0.485 (hr*ng/ml)/mg

Q: And the C12 [4]?
A: BLQ

Q: And the CL/F [4]?
A: 2220 L/h

Q: And the Cmax/D [4]?
A: 0.0961 (ng/mL)/mg

Q: And the AUC0-24/D [5]?
A: 0.707 (hr*ng/ml)/mg

Q: What about the CL/F [5] of the same molecule?
A: 1390 L/h

Q: What about the Cmax/D [5] of the same molecule?
A: 0.105 (ng/mL)/mg

Q: And the AUC0-24/D [6]?
A: 0.742 (hr*ng/ml)/mg

Q: What about the CL/F [6] of the same molecule?
A: 1480 L/h

Q: And the Cmax/D [6]?
A: 0.132 (ng/mL)/mg

Q: And the AUC0-24/D [7]?
A: 2.19 (hr*ng/ml)/mg

Q: And the CL/F [7]?
A: 443 L/h

Q: What about the Cmax/D [7] of the same molecule?
A: 0.413 (ng/mL)/mg

Q: What about the AUC0-24/D [8] of the same molecule?
A: 2.21 (hr*ng/ml)/mg

Q: And the CL/F [8]?
A: 449 L/h

Q: And the Cmax/D [8]?
A: 0.422 (ng/mL)/mg

Q: And the AUC0-24/D [9]?
A: 0.584 (hr*ng/ml)/mg

Q: What about the CL/F [9] of the same molecule?
A: 1700 L/h

Q: And the Cmax/D [9]?
A: 0.136 (ng/mL)/mg

Q: What about the AUC0-24/D [10] of the same molecule?
A: 0.617 (hr*ng/ml)/mg

Q: And the CL/F [10]?
A: 1810 L/h

Q: What about the Cmax/D [10] of the same molecule?
A: 0.142 (ng/mL)/mg

Q: And the AUC0-24/D [11]?
A: 0.333 (hr*ng/ml)/mg

Q: And the CL/F [11]?
A: 2960 L/h

Q: What about the Cmax/D [11] of the same molecule?
A: 0.0568 (ng/mL)/mg

Q: What about the AUC0-24/D [12] of the same molecule?
A: 0.378 (hr*ng/ml)/mg

Q: And the CL/F [12]?
A: 3850 L/h

Q: What about the Cmax/D [12] of the same molecule?
A: 0.0692 (ng/mL)/mg

Q: What about the AUC0-24/D [13] of the same molecule?
A: 0.348 (hr*ng/ml)/mg

Q: And the CL/F [13]?
A: 3000 L/h

Q: What about the Cmax/D [13] of the same molecule?
A: 0.0475 (ng/mL)/mg

Q: What about the AUC0-24/D [14] of the same molecule?
A: 0.403 (hr*ng/ml)/mg

Q: What about the CL/F [14] of the same molecule?
A: 3820 L/h

Q: What about the Cmax/D [14] of the same molecule?
A: 0.0522 (ng/mL)/mg

Q: And the “Dose proportionality power model, AUC0-12: Intercept estimate” value [15]?
A: 1.51

Q: What about the “Dose proportionality power model, AUC0-inf: Intercept estimate” value [15] of the same molecule?
A: 1.46

Q: And the “Dose proportionality power model, AUC0-tau: Intercept estimate” value [15]?
A: 0.258

Q: What about the “Dose proportionality power model, Cmax: Intercept estimate” value [15] of the same molecule?
A: 0.534

Q: And the half-life (in vivo, 200 mg)?
A: 3.17 h

Q: What about the AUC [16] of the same molecule?
A: 27.4 ng·h/mL

Q: And the AUC [17]?
A: 35 ng·h/mL

Q: And the AUC(0-inf) (plasma, 100 mg, AUC0-∞, 100 mg KAR5585 single oral, fasted, Cohort 1, Geo. Mean)?
A: 47.5 ng·h/mL

Q: What about the AUC(0-inf) (plasma, 100 mg, AUC0-∞, 100 mg KAR5585 single oral, fasted, Cohort 1, Mean) of the same molecule?
A: 49.5 ng·h/mL

Q: And the Cmax [16]?
A: 13.2 ng/mL

Q: And the Cmax [17]?
A: 13.9 ng/mL

Q: And the Vd/F [16]?
A: 5190 L

Q: What about the Vd/F [17] of the same molecule?
A: 5680 L

Q: And the half-life (plasma, 100 mg, t1 (t½, apparent terminal half-life), 100 mg KAR5585 single oral, fasted, Cohort 1, Geo. Mean)?
A: 1.71 h

Q: And the half-life (plasma, 100 mg, t1 (t½, apparent terminal half-life), 100 mg KAR5585 single oral, fasted, Cohort 1, Mean)?
A: 1.89 h

Q: What about the Tmax (plasma, 100 mg, 100 mg KAR5585 single oral, fasted, Cohort 1) of the same molecule?
A: 1.5 h

Q: What about the AUC [18] of the same molecule?
A: 52 ng·h/mL

Q: And the AUC [19]?
A: 61.4 ng·h/mL

Q: What about the AUC(0-inf) (plasma, 200 mg, AUC0-∞, 200 mg KAR5585 single oral, fasted, Cohort 2, Geo. Mean) of the same molecule?
A: 95.3 ng·h/mL

Q: What about the AUC(0-inf) (plasma, 200 mg, AUC0-∞, 200 mg KAR5585 single oral, fasted, Cohort 2, Mean) of the same molecule?
A: 99.5 ng·h/mL

Q: And the Cmax [18]?
A: 17.5 ng/mL

Q: What about the Cmax [19] of the same molecule?
A: 19.2 ng/mL

Q: And the Vd/F [18]?
A: 9610 L

Q: What about the Vd/F [19] of the same molecule?
A: 10300 L

Q: And the half-life (plasma, 200 mg, t1 (t½, apparent terminal half-life), 200 mg KAR5585 single oral, fasted, Cohort 2, Mean)?
A: 3.63 h

Q: What about the Tmax (plasma, 200 mg, 200 mg KAR5585 single oral, fasted, Cohort 2) of the same molecule?
A: 1.78 h

Q: And the AUC(0-inf) (plasma, 400 mg, AUC0-inf, Geometric Mean, Cohort 3A (Fasting), 400 mg KAR5585 single oral dose, fasting)?
A: 288 ng·h/mL

Q: What about the AUC(0-inf) (plasma, 400 mg, AUC0-inf, Geometric Mean, Cohort 3B (Fed), 400 mg KAR5585 single oral dose, fed) of the same molecule?
A: 903 ng·h/mL

Q: And the AUC (plasma, 400 mg, 400 mg KAR5585 single oral, fasted, Cohort 3A, Geo. Mean)?
A: 176 ng·h/mL
